Experimental data published in article PMC5908784, “Extracellular loops 2 and 3 of the calcitonin receptor selectively modify agonist binding and efficacy” (Biochemical Pharmacology, 2018).
Residue numbers refer to the chain shown, from its start. Where no end group is shown, it is not given here.

Columns and labels:
Assay in all cases: Homologous whole cell competition binding
Settings in all cases: homologous competition of 125I-sCT(8-32), whole cells, mean ± S.E.M., SEM
[1] = target: T1, hCTR S292A (Homo sapiens, UniProt P30988, S292A)
T1 construct: expressed in transfected cells
T1 sequence (P30988 25-474 S292A): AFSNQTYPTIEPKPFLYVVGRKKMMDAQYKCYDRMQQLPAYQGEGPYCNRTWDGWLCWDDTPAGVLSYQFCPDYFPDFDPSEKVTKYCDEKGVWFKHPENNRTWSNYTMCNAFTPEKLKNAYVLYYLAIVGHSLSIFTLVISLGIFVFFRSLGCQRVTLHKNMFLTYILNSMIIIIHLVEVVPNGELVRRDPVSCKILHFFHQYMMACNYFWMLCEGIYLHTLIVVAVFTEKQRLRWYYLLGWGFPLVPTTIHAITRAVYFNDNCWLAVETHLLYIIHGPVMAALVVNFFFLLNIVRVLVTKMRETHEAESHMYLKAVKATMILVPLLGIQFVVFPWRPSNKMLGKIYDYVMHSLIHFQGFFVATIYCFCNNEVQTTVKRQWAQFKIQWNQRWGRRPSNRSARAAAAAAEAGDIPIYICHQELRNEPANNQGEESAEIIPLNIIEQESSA
Method in brief: (§1)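 Homologous competition, intact cells, 4 °C overnight; tracer ^125I-sCT(8-32) 25–100 pM (two concs) vs cold sCT(8-32); NSB 1 μM cold peptide; γ counter; 3-param logistic IC50 → Cheng-Prusoff pKi; Bmax also estimated.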

[2] = target: T2, hCTR F356A (Homo sapiens, UniProt P30988, F356A)
T2 construct: c-Myc (N); expressed in transfected cells
T2 sequence (P30988 25-474 F356A): T1 sequence (P30988 25-474 S292A) with A268S, F332A
Method in brief: as §1

[3] = target: T3, hCTR V375A (Homo sapiens, UniProt P30988, V375A)
T3 construct: c-Myc (N); expressed in transfected cells
T3 sequence (P30988 25-474 V375A): T1 sequence (P30988 25-474 S292A) with A268S, V351A
Method in brief: as §1

[4] = target: T4, hCTR W361A (Homo sapiens, UniProt P30988, W361A)
T4 construct: expressed in transfected cells
T4 sequence (P30988 25-474 W361A): T1 sequence (P30988 25-474 S292A) with A268S, W337A
Method in brief: as §1

Ki [1]: 0.0631 nM
Ki [2]: 0.141 nM
Ki [3]: 0.191 nM
Ki [4]: 0.282 nM
Substance: VLGKLSQELHKLQTYPRTNTGSGTP-NH2 [sCT(8-32)]
